How the values were obtained:
SREBP pathway = assay: SREBP luciferase reporter gene system (SRE-luciferase assay); assay type: cell-based, human; conditions: Homo sapiens, Huh-7, 16 h, Huh-7/SRE-luc cells, sterol-deficient medium, 0.01-10 µM
Summary of the method: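 Readout was SRE-driven luciferase normalised to GFP fluorescence in lysates of stably transfected Huh-7/SRE-luc hepatoma cells. Compounds (0.01, 0.03, 0.1, 0.3, 1.0, 3.0, 10 µM; DMSO control) were applied for 16 h in sterol-depleted medium with 2 µM lovastatin and 10 µM mevalonate; IC50 from variable-slope fit.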

[1] = Metabolic stability experiment of mouse liver microsomes; assay type: in vitro ADME
Method: PB solution (100 mM), MgCl2 solution (300 mM), NADPH solution (2.04 mM), and mouse liver microsome (SHQY catalog number: M1000, batch number: 2110330) solution (1.00 mg/mL) were prepared respectively. […] Then, 100 µL of mouse liver microsome solution was added to a 96-well sample plate. For the 0 min sample, acetonitrile solution containing the internal standard was first added; then, 2 µL of 100 µM working solution was added; followed by the addition of 98 µL of pre-warmed 2.04 mM NADPH at 37°C. For the 5 min, 15 min, 30 min, 45 min, and 60 min samples, 2 µL of 100 µM working solution was first added; followed by the addition of 98 µL of pre-warmed 2.04 mM NADPH at 37°C to initiate the reaction; upon reaching the respective time points, a solution of acetonitrile containing the internal standard was added to terminate the reaction. For the NCF60 sample, 2 µL of 100 µM working solution was first added; followed by the addition of 98 µL of pre-warmed PB at 37°C to initiate the reaction; upon reaching the respective time points, a solution of acetonitrile containing the internal standard was added to terminate the reaction. During the experiment, all samples were incubated in a 37°C water bath. All samples were shaken on an oscillator at 800 rpm for 10 min, then centrifuged at 3200 g for 20 min. The supernatant was aspirated, diluted with deionized water at the corresponding ratio, and analyzed by LC-MS/MS. The remaining percentage of the compound at each time point was obtained by dividing the peak area ratio of the compound at 5, 15, 30, 45, and 60 min by the peak area ratio at 0 min. The half-life (T1/2) of the compound was then calculated using Excel. Table 2: Mouse liver microsome stability results of compounds from some examples

[2] = system: Fatty Acid Synthase (FASN) gene; assay: Inhibition of FASN gene expression (qPCR) in Huh-7 cells; assay type: cell-based, human; conditions: Homo sapiens, Huh-7, 16 h, Huh-7 cells, starvation medium, 16 hours, qPCR; class symbols; read-out: FASN IC50
Summary of the method: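 IC50 derived by four-parameter fit of FASN expression inhibition versus DMSO, measured by RT-qPCR. Compound exposure lasted 16 h at five 3-fold concentrations from 3000 nM, applied to Huh-7 cells in sterol-depleting medium with 5% LPDS, 2 µM lovastatin and 10 µM mevalonate.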

C[C@H](CCCC(O)c1c(F)cccc1F)[C@H]1CC[C@H]2[C@H]3[C@H](CC[C@]12C)[C@@]1(C)CC[C@H](O)CC1CC3(F)F (stereo in doubt) [Compound 87, (1R,3aS,3bR,7S,9aS,9bS,11aR)-1-[(2R)-6-(2,6-difluorophenyl)-6-hydroxyhexan-2-yl]-4,4-difluoro-9a,11a-dimethylhexadecahydro-1H-cyclopenta[1,2-a]phenanthren-7-ol]
IC50 (SREBP pathway): 0.055 µM
half-life at 1 µM [1]: 2.26 h
IC50 [2]: < 0.2 µM

COc1c(F)cccc1C(O)CCC[C@@H](C)[C@H]1CC[C@H]2[C@@H]3CC[C@H]4[C@@H](O)[C@@H](O)CC[C@]4(C)[C@H]3CC[C@]12C (stereo partly drawn) [Compound 7, 24-[(3-Fluoro-2-methoxyphenyl)(hydroxy)methyl]-5α-cholane-3β,4β-diol]
IC50 (SREBP pathway): 0.07 µM
half-life at 1 µM [1]: 0.624 h
IC50 [2]: 0.2 to 0.5 µM

C[C@H](CCCC(O)c1ccccc1F)[C@H]1CC[C@H]2[C@H]3[C@H](CC[C@]12C)[C@@]1(C)CC[C@H](O)C(=O)[C@@H]1CC3(F)F (stereo partly drawn) [Compound 11, (1R,3aS,3bS,5aR,7S,9aR,9bS,11aR)-4,4-difluoro-1-[(2R)-6-(2-fluorophenyl)-6-hydroxyhexan-2-yl]-7-hydroxy-9a,11a-dimethylhexadecahydro-1H-cyclopenta[1,2-a]phenanthren-6-one]
IC50 (SREBP pathway): 0.19 µM
half-life at 1 µM [1]: 0.819 h
IC50 [2]: 0.2 to 0.5 µM

COc1cccc(C(O)CCC[C@@H](C)[C@H]2CC[C@H]3C4=C(F)C[C@H]5[C@@H](O)[C@@H](O)CC[C@]5(C)[C@H]4CC[C@]23C)c1F (stereo partly drawn) [Compound 64, (1R,3aR,5aR,6R,7S,9aR,9bR,11aR)-4-fluoro-1-[(2R)-6-(2-fluoro-3-methoxyphenyl)-6-hydroxyhexan-2-yl]-9a,11a-dimethyl-2,3,3a,5,5a,6,7,8,9,9a,9b,10,11,11a-tetradecahydro-1H-cyclopenta[1,2-a]phenanthrene-6,7-diol]
IC50 (SREBP pathway): 0.318 µM
half-life at 1 µM [1]: 1.16 h
IC50 [2]: < 0.2 µM

COc1cccc([C@@H](O)CCC[C@@H](C)[C@H]2CC[C@H]3[C@H]4[C@H](CC[C@]23C)[C@@]2(C)CC[C@H](O)[C@H](O)[C@@H]2CC4(F)F)c1OC [Compound 70, (1R,3aS,3bS,5aR,6R,7S,9aR,9bS,11aR)-1-[(2R,6S)-6-(2,3-dimethoxyphenyl)-6-hydroxyhexan-2-yl]-4,4-difluoro-9a,11a-dimethylhexadecahydro-1H-cyclopenta[1,2-a]phenanthrene-6,7-diol]
IC50 (SREBP pathway): 0.211 µM
half-life at 1 µM [1]: 0.581 h
IC50 [2]: < 0.2 µM

COc1cccc([C@H](O)CCC[C@@H](C)[C@H]2CC[C@H]3[C@H]4[C@H](CC[C@]23C)[C@@]2(C)CC[C@H](O)[C@H](O)[C@@H]2CC4(F)F)c1OC [Compound 71, (1R,3aS,3bS,5aR,6R,7S,9aR,9bS,11aR)-1-[(2R,6R)-6-(2,3-dimethoxyphenyl)-6-hydroxyhexan-2-yl]-4,4-difluoro-9a,11a-dimethylhexadecahydro-1H-cyclopenta[1,2-a]phenanthrene-6,7-diol]
IC50 (SREBP pathway): 0.083 µM
half-life at 1 µM [1]: 1.05 h
IC50 [2]: < 0.2 µM

COc1ccccc1C(O)CCC[C@@H](C)[C@H]1CC[C@H]2[C@H]3[C@H](CC[C@]12C)[C@@]1(C)CC[C@H](O)CC1CC3(F)F (stereo partly drawn) [Compound 72, (1R,3aS,3bR,7S,9aS,9bS,11aR)-4,4-difluoro-1-[(2R)-6-hydroxy-6-(2-methoxyphenyl)hexan-2-yl]-9a,11a-dimethylhexadecahydro-1H-cyclopenta[1,2-a]phenanthren-7-ol]
IC50 (SREBP pathway): 0.14 µM
half-life at 1 µM [1]: 1.38 h
IC50 [2]: < 0.2 µM

C[C@H](CCCC(O)c1cccc2c1OC(F)(F)O2)[C@H]1CC[C@H]2[C@H]3[C@H](CC[C@]12C)[C@@]1(C)CC[C@H](O)[C@H](O)[C@@H]1CC3(F)F (stereo partly drawn) [Compound 77, (1R,3aS,3bS,5aR,6R,7S,9aR,9bS,11aR)-1-[(2R)-6-(2,2-difluorobenzo[d][1,3]dioxol-4-yl)-6-hydroxyhexan-2-yl]-4,4-difluoro-9a,11a-dimethylhexadecahydro-1H-cyclopenta[1,2-a]phenanthrene-6,7-diol]
IC50 (SREBP pathway): 0.17 µM
half-life at 1 µM [1]: > 3.08 h
IC50 [2]: < 0.2 µM

From patent EP4752152A1, “STEROID COMPOUND, AND PREPARATION METHOD THEREFOR AND USE THEREOF” (Cholesgen (Shanghai) Co.Ltd., priority 2023, dated 2025)
